Results reported in patent US9670242B2, “Tetracyclic anthraquinone derivatives” (Tianjin Hemay Bio-Tech Co., Ltd, priority 2012, dated 2017).

How the values were obtained:
B16 cells = assay: B16 cell growth inhibition test (MTT assay); type: cell-based, mouse; settings: 72 h
Description: B16 Cell Growth Inhibition Test (MTT Assay)
(§1) II. Reagents and Consumable Materials
(§2) Culture medium: 90% RPMI1640+10% FBS (fetal calf serum); Pancreatin (0.25% (w/v) solution was formulated with PBS, 0.53 mM of EDTA was added in the formulation); PBS; 96-well culture plate.
(§3) 1. A plate (10 cm) of cells in logarithmic growth phase that were normally cultured was collected;
(§4) 2. The culture solution was sucked out. The plate was washed with 5 mL of PBS once or twice;
(§5) 3. PBS was sucked out. 1.5 mL of 0.25% pancreatin was added to the plate to infiltrate the cells for 1 min;
(§6) 4. The culture plate was placed in an incubator. Digestion was carried out for about 1 min at 37° C.;
(§7) 5. 3 mL of complete culture solution was added to the culture plate to stop the digestion. The cells were carefully scoured with micropipette (1 mL) to give a uniform cell suspension. The suspension was implanted into a 96-well cell culture disc by 2500 cells/100 μL per well. The culture plate was incubated overnight under 5% CO2 at 37° C. In day 2, 100 μL of culture solution comprising a compound was added in each well. The plate was further incubated for 72 h under 5% CO2 at 37° C.;
(§8) 6. The culture solution was sucked out;
7. 100 μl of serum-free culture solution containing 0.5 mg/mL MTT was added in each well. The plate was incubated for 3 h;
(§9) 8. The culture solution was carefully sucked out;
(§10) 9. 100 μL of DMSO was added in each well and vibrated to dissolve;
(§11) 10. OD values were determined at 490 nM.
(§12) IV. Results and Treatments
(§13) 1. Calculation of Relative Inhibition Ratio The inhibition ratio of a compound on cell growth=(PC−n)/(PC−NC)×100%
(§14) PC: OD values of cells after normal growth in control wells without a compound;
(§15) n: OD values of cells after growth in test wells with a compound;
(§16) NC: Background OD values of blank wells without a compound and cells.

786-O cells = assay: 786-O cell growth inhibition test (MTT assay); type: cell-based, human; settings: 72 h
Description: 786-O Cell Growth Inhibition Test (MTT Assay)
as §1, §2, §3, §4, §5, §6
as §7, with “2000” for “2500”
as §8
(§17) 7. 100 μL of serum-free culture solution containing 0.5 mg/mL MTT was added in each well. The plate was incubated for 3 h;
as §9, §10, §11, §12, §13, §14, §15, §16

DU-145 cells = assay: DU-145 cell growth inhibition test (MTT assay); type: cell-based; settings: 72 h
Description: DU-145 Cell Growth Inhibition Test (MTT Assay)
as §1
Culture medium: 90% EMEM+10% FBS (fetal calf serum); Pancreatin (0.25% (w/v) solution was formulated with PBS, 0.53 mM of EDTA was added in the formulation); PBS; 96-well culture plate.
as §3, §4, §5, §6
as §7, with “4000” for “2500”
as §8, §17, §9, §10, §11, §12, §13, §14, §15, §16

NCI-H446 cells = assay: NCI-H446 cell growth inhibition test (MTT assay); type: cell-based, human; settings: growth inhibition at 222 nM, 70 h
Outline: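 Human small cell lung cancer cells in RPMI-1640 with 10% FBS were seeded at 4000 per well and treated with compound for 70 h at 37° C, 5% CO2. MTT at 0.5 mg/mL was added for 3 h, formazan was dissolved in DMSO and OD read at 490 nm. Inhibition ratio was calculated against untreated and blank wells.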

22Rv1 cells = assay: 22Rv1 cell growth inhibition test (SRB assay); type: cell-based, human; settings: growth inhibition at 222 nM, 73 h
Outline: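 Human prostate cancer 22Rv1 cells seeded at 7000 cells/well, incubated overnight, then exposed to compound for 73 h at 37° C, 5% CO2. TCA-fixed cells stained with SRB, dye dissolved in 10 mM Tris, OD read at 570 nm. Inhibition = (PC−n)/(PC−NC)×100% against untreated and cell-free blank wells.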

Row | Structure (SMILES) | IC50 (B16 cells) [nM] | IC50 (786-O cells) [nM] | IC50 (DU-145 cells) [nM] | Inhibition Ratio (%) (NCI-H446 cells) | Inhibition Ratio (%) (22Rv1 cells)
1 | COc1cccc2c1C(=O)c1c(O)c3c(c(O)c1C2=O)CC(O)(C(=O)COC(=O)CCC(=O)O)CC3OC1CC(n2cccc2)C(O)C(C)O1 (stereo not shown) [Compound A, 3′-pyrrolyldoxorubicin-14-oxo-succinic acid monoester, reference compound] | 32 | 180 | 99 |  | 
2 | CC(=O)O.COc1cccc2c1C(=O)c1c(O)c3c(c(O)c1C2=O)CC(O)(C(=O)COC(=O)CCC(=O)NCCCN1CCN(C)CC1)CC3O[C@H]1C[C@H](n2cccc2)[C@H](O)[C@H](C)O1 (stereo partly drawn) [Example 81, 10-((3′-(pyrrol-1-yll)-2′,3′,6′-trideoxy-alphal-l-lyxo-hexylpyranyl)oxy)-7,8,9,10-tetrahydro-6,8,11-trihydroxy-13-oxo-14-(4-((3-(4-methylpiperazin-1-yl)propyl)amino)-4-oxo-butyrato)-1-methoxy-5,12-naphthalenedione acetate] |  |  |  | 56.8 | 56.5
3 | COc1cccc2c1C(=O)c1c(O)c3c(c(O)c1C2=O)CC(O)(C(=O)COC(=O)CCC(=O)NCCOCCO)CC3OC1CC(n2cccc2)C(O)C(C)O1 (stereo not shown) [Example 62] | 3 | 110 | 34 | 64.6 | 57
